Assay results as given in ChEMBL document CHEMBL5214920, “Emerging impact of triazoles as anti-tubercular agent” (Eur J Med Chem, 2022).
Converted amounts (≈) assume the structure as drawn.

Each compound was assayed on Mycobacterium tuberculosis (assay: Antitubercular activity against multi-drug-resistant Mycobacterium tuberculosis assessed as bacterial growth inhibition measured after 7 days by direct susceptibility assay). Conditions: 168 h, time 7 day.
Assay type: functional

| SMILES | MIC [µg/mL] |
| --- | --- |
| COc1c(N2CCNCC2)c(F)cc2c(=O)c(C(=O)O)cn(C3CC3)c12 | 2 (≈ 5.53 µM) |
| O=C(O)c1cn(C2CC2)c2cc(N3CCN(Cc4cn(CCN5C(=O)Cc6ccccc65)nn4)CC3)c(F)cc2c1=O | 0.25 (≈ 0.437 µM) |
| CO/N=C1/C(=O)C(CCOCCOCCOCCn2cc(CN3C(=O)/C(=N/OC)c4cc(F)ccc43)nn2)c2ccccc21 (configuration not stated) | 64 (≈ 105 µM) |
| O=C(O)c1cn(C2CC2)c2cc(N3CCNCC3)c(F)cc2c1=O [CIPROFLOXACIN] | 4 (≈ 12.1 µM) |
| NNC(=O)c1ccncc1 [ISONIAZID] | 512 (≈ 3730 µM) |
| CO[C@H]1/C=C/O[C@@]2(C)Oc3c(C)c(O)c4c(O)c(c(/C=N/N5CCN(C)CC5)c(O)c4c3C2=O)NC(=O)/C(C)=C\C=C\[C@H](C)[C@H](O)[C@@H](C)[C@@H](O)[C@@H](C)[C@H](OC(C)=O)[C@@H]1C [RIFAMPIN] | 64 (≈ 77.8 µM) |

What follows are compounds tested on Mycobacterium tuberculosis (assay: Potency index, ratio of isoniazid MIC to test compound MIC for antitubercular activity against multi-drug-resistant Mycobacterium tuberculosis). Conditions: not given.
Assay type: functional

| SMILES | Ratio |
| --- | --- |
| CO/N=C1/C(=O)C(CCOCCOCCOCCn2cc(CN3C(=O)/C(=N/OC)c4cc(F)ccc43)nn2)c2ccccc21 (configuration not stated) | 8 |
